The test system of data set [1] is Bacillus cereus. As to the kind of experiment: Antibacterial activity against Bacillus cereus assessed as inhibition of bacterial growth incubated for 72 hrs by CLSI based method. The format is functional.
Data set [2] concerns Enterococcus faecalis. As to the kind of experiment: Antibacterial activity against Enterococcus faecalis ATCC 29212 assessed as inhibition of bacterial growth incubated for 72 hrs by CLSI based method. The format is functional. To be noted: ATCC 29212, 72 h.
Data set [3] has as its system Pseudomonas aeruginosa. In words: Antibacterial activity against Pseudomonas aeruginosa ATCC 27853 assessed as inhibition of bacterial growth incubated for 72 hrs by CLSI based method. It is filed as functional. To be noted: ATCC 27853, 72 h.
In data set [4] the test system is Streptococcus agalactiae. In words: Bactericidal activity against Streptococcus agalactiae J48 assessed as inhibition of bacterial growth incubated for 72 hrs followed by culture growth in Todd-Hewitt agar medium and incubated for 24 hrs at 37 degC. It is filed as functional, organism-based.
A short description of data set [5]: Critical aggregation concentration by at 37 degC isothermal titration calorimetry method. It is filed as ADME.
The test system of data set [6] is Streptococcus agalactiae. As to the kind of experiment: Antibacterial activity against Streptococcus agalactiae J48 assessed as inhibition of bacterial growth incubated for 72 hrs by CLSI based method. It is filed as functional. Particulars: J48, 72 h.
The subject of data set [7] is Escherichia coli. As to the kind of experiment: Antibacterial activity against Escherichia coli ATCC 25922 assessed as inhibition of bacterial growth incubated for 72 hrs by CLSI based method. The format is functional. Particulars: ATCC 25922, 72 h.
For data set [8], the system named is Escherichia coli. As to the kind of experiment: Bactericidal activity against Escherichia coli ATCC 25922 assessed as inhibition of bacterial growth incubated for 72 hrs followed by culture growth in Todd-Hewitt agar medium and incubated for 24 hrs at 37 degC. The format is functional, organism-based.
The subject of data set [9] is Enterococcus faecalis. As to the kind of experiment: Bactericidal activity against Enterococcus faecalis ATCC 29212 assessed as inhibition of bacterial growth incubated for 72 hrs followed by culture growth in Todd-Hewitt agar medium and incubated for 24 hrs at 37 degC. The format is functional, organism-based.
Data set [10] deals with Staphylococcus aureus. As to the kind of experiment: Antibacterial activity against Staphylococcus aureus subsp. aureus ATCC 29213 assessed as inhibition of bacterial growth incubated for 72 hrs by CLSI based method. It is filed as functional. To be noted: ATCC 29213, 72 h.
In data set [11] the test system is Bacillus cereus. In words: Bactericidal activity against Bacillus cereus assessed as inhibition of bacterial growth incubated for 72 hrs followed by culture growth in Todd-Hewitt agar medium and incubated for 24 hrs at 37 degC. The format is functional, organism-based.
For data set [12], the system named is Pseudomonas aeruginosa. In words: Bactericidal activity against Pseudomonas aeruginosa ATCC 27853 assessed as inhibition of bacterial growth incubated for 72 hrs followed by culture growth in Todd-Hewitt agar medium and incubated for 24 hrs at 37 degC. The format is functional, organism-based.
The subject of data set [13] is Staphylococcus aureus. In words: Bactericidal activity against Staphylococcus aureus subsp. aureus ATCC 29213 assessed as inhibition of bacterial growth incubated for 72 hrs followed by culture growth in Todd-Hewitt agar medium and incubated for 24 hrs at 37 degC. It is filed as functional, organism-based.

Values after ≈ are worked out from the molar mass of the structure shown. Active and inactive are the calls of the source. The calls are words filed in the database; no cut-off is given here. Bounds are passed on as bounds.

`CCCCCCCCCCCCCC[N+](C)(C)Cc1cc(C[n+]2ccccc2)cc(C[N+](C)(C)CCCCCCCCCCCCCC)c1.[Br-].[Br-].[Br-]`: the MIC (in general, the lowest concentration found to suppress growth) in data set [1] stood at 8 µM; in [2], 4 µM; in data set [3] it was 63 µM; in data set [6] it was 4 µM; in [7], 16 µM; in [10], 4 µM. Further, the result in data set [4], in data set [8], in data set [9], in data set [11], in data set [12] and in [13] was Active. This compound gave a CAC in [5] of 0.6 mM.
Turning to `CCCCCCCCCC[N+](C)(C)Cc1cc(C[n+]2ccccc2)cc(C[N+](C)(C)CCCCCCCCCC)c1.[Br-].[Br-].[Br-]`, the MIC is 8 µM in [1]; 8 µM in data set [2]; 63 µM in data set [3]; 8 µM in data set [6]; 16 µM in data set [7]; 2 µM in data set [10]. In addition, the outcome in [4], in data set [8], in data set [9], in [11], in data set [12] and in [13] was Active. The same compound displayed a CAC in data set [5] of 14 mM.
As to `CCCCCCCCCC[N+](C)(C)Cc1cc(C[N+](C)(C)C)cc(C[N+](C)(C)CCCCCCCCCC)c1.[Br-].[Br-].[Br-]`, the MIC in data set [1] is 8 µM; in data set [2], 8 µM; in [3], more than 250 µM; in data set [6], 4 µM; in data set [7] it was 125 µM; in [10], 16 µM. Besides, the outcome in [4], in data set [8], in data set [9], in data set [11], in data set [12] and in data set [13] was Active. In data set [5], the CAC was 12 mM.
For the compound `CCCCCCCC[N+](C)(C)Cc1cc(C[N+](C)(C)C)cc(C[N+](C)(C)CCCCCCCC)c1`, the MIC in [1], in [2], in [3], in [6], in data set [7] and in [10] was more than 250 µM in each case. Besides, the outcome in data set [4], in data set [8], in [9], in [11], in data set [12] and in data set [13] was Active.
Turning to `CCCCCCCCCCCC[N+](C)(C)Cc1cc(C[N+](C)(C)C)cc(C[N+](C)(C)CCCCCCCCCCCC)c1.[Br-].[Br-].[Br-]`, the MIC in [1] is 2 µM; in data set [2] it was 2 µM; in data set [3], 16 µM; in data set [6] it was 2 µM; in data set [7] it was 4 µM; in data set [10] it was 2 µM. The result in [4], in data set [8], in [9], in data set [11], in data set [12] and in data set [13] was Active. The same compound came in with a CAC in data set [5] of 2.5 mM.
On to `NC[C@H]1O[C@H](O[C@H]2[C@H](O)[C@@H](O[C@H]3O[C@H](CO)[C@@H](O)[C@H](N)[C@H]3O)[C@H](N)C[C@@H]2N)[C@H](N)C[C@@H]1O` [TOBRAMYCIN], for which the minimal inhibitory concentration (MIC) in data set [3] was 6.4 µM (≈ 2.99 µg/mL).
In the case of `CCCCCCCCCCCCCCCC[N+](C)(C)Cc1cc(C[N+](C)(C)C)cc(C[N+](C)(C)CCCCCCCCCCCCCCCC)c1.[Br-].[Br-].[Br-]`, the MIC is 16 µM in [1]; 32 µM in [2]; more than 250 µM in [3]; 8 µM in [6]; 63 µM in [7]; 16 µM in [10]. Besides, the outcome in [4], in data set [8], in data set [9], in data set [11], in data set [12] and in data set [13] was Active. The compound further registered a CAC in data set [5] of 0.16 mM.
On to `CCCCCCCCCCCC[N+](C)(C)Cc1cc(C[n+]2ccccc2)cc(C[N+](C)(C)CCCCCCCCCCCC)c1.[Br-].[Br-].[Br-]`, for which the MIC in data set [1] is 2 µM; in data set [2] it was 2 µM; in data set [3], 8 µM; in data set [6] it was 1 µM; in data set [7], 4 µM; in [10], 2 µM. The outcome in data set [4], in data set [8], in data set [9], in data set [11], in data set [12] and in data set [13] was Active. For the same compound, the CAC in data set [5] worked out at 2.4 mM.
As for `CCCCCCCCCCCCCCCC[N+](C)(C)Cc1cc(C[n+]2ccccc2)cc(C[N+](C)(C)CCCCCCCCCCCCCCCC)c1.[Br-].[Br-].[Br-]`, the minimal inhibitory concentration (MIC) in data set [1], in data set [2], in data set [3], in data set [6], in data set [7] and in data set [10] was more than 250 µM each time. The outcome in [4], in data set [8], in data set [9], in data set [11], in data set [12] and in data set [13] was Active. The compound also came in with a CAC in data set [5] of 0.18 mM.
Turning to `CCCCCCCC[N+](C)(C)Cc1cc(C[n+]2ccccc2)cc(C[N+](C)(C)CCCCCCCC)c1`, the minimal inhibitory concentration (MIC) in data set [1], in [2], in data set [3], in [6], in data set [7] and in [10] was more than 250 µM throughout. Further, the result in data set [4], in data set [8], in data set [9], in [11], in [12] and in [13] was Active.
Consider `CCCCCCCCCCCCCC[N+](C)(C)Cc1cc(C[N+](C)(C)C)cc(C[N+](C)(C)CCCCCCCCCCCCCC)c1.[Br-].[Br-].[Br-]`, for which the MIC in data set [1] worked out at 4 µM; in data set [2], 4 µM; in data set [3], 125 µM; in data set [6] it was 2 µM; in [7] it was 8 µM; in data set [10], 4 µM. The outcome in data set [4], in data set [8], in data set [9], in [11], in data set [12] and in data set [13] was Active. Also, the CAC in data set [5] was found to be 0.61 mM.
